The nature of data set [1]: Volume of distribution in mouse at 3 mg/kg, iv. In kind it is ADME, organism-based. Also on record: dose 3 mg/kg, route intravenous. The conditions noted are these: in vivo.
The nature of data set [2]: Cmax in mouse at 30 mg/kg, po. Also on record: dose 30 mg/kg, route oral. In kind it is ADME, organism-based. The conditions noted are these: in vivo.
Data set [3] relates to Mus musculus. As to the kind of experiment: (§1) AUC in mouse at 30 mg/kg, po. The format is ADME, organism-based, Plasma. Also on record: dose 30 mg/kg, route oral. The conditions noted are these: in vivo.
A short description of data set [4]: Half life in mouse at 30 mg/kg, po. In kind it is ADME, organism-based. The conditions noted are these: in vivo. Also on record: dose 30 mg/kg, route oral.
In data set [5] the test system is Mus musculus. Nature of the data set: (§2) Oral bioavailability in mouse at 30 mg/kg. In kind it is ADME, organism-based. The conditions noted are these: in vivo.
Data set [6] in a line: Clearance in mouse at 3 mg/kg, iv. The arrangement: dose 3 mg/kg, route intravenous. The conditions noted are these: in vivo. In kind it is ADME, organism-based.
The nature of data set [7]: as §1. The conditions noted are these: plasma. The format is ADME, organism-based, Plasma. The arrangement: dose 30 mg/kg, route oral.
A short description of data set [8]: as §2. The format is ADME, organism-based. The conditions noted are these: in vivo.

A word on the Vd: it is the apparent volume that relates the amount in the body to the concentration in plasma or blood. Higher therefore signals extensive tissue distribution. For orientation: Cmax means the peak of the concentration-time curve. Broadly, the AUC is the area under the concentration-time curve, a measure of exposure. Low values mean less exposure, high ones more exposure. For orientation: half-life means the time in which the quantity being followed falls by half. High values mean slow loss, low ones fast loss. One may read the clearance as the rate of elimination divided by the concentration. In general, bioavailability refers to the share of a dose that reaches the circulation, judged against a reference dose that is usually intravenous.

In data set [1], `Oc1ccc2cc(CNCCc3ccc(Br)cc3)c(-c3ccsc3)nc2c1` displayed a Vd of 2.4 L/kg. Further, the highest level in data set [2] (Cmax) was 370 ng/mL. The exposure (AUC) with Mus musculus [3] worked out at 400 ng·h/mL. In data set [4], the half-life is 4.4 h. The molecule further registered a F with Mus musculus [5] of 9%.

On to `COc1cc2nc(-c3ccsc3)c(CNCCc3ccc(Br)cc3)cc2cc1O`, for which, in data set [6], the clearance was 29 mL/min/kg. The molecule also had a Vd in data set [1] of 1.4 L/kg. In data set [2], this molecule returned a Cmax of 500 ng/mL. This molecule displayed an AUC in data set [7] of 860 ng·h/mL. Besides, the half-life in data set [4] was 7.7 h. In addition, the bioavailability in data set [8] is 10%.

These data come from ChEMBL document CHEMBL1255552, “Synthesis and SAR of 2-aryl-3-aminomethylquinolines as agonists of the bile acid receptor TGR5” (Bioorg Med Chem Lett, 2010).
